Data published in US20060269995A1, “Novel assays utilizing nicotinic acetylcholine receptor subunits” (priority 2005, published 2006).
Where two headings read alike, the source gives them in different places.

How the values were obtained:
[1] = test system: Drosophila melanogaster flies of the Oregon wild-type strain; assay: Adult fly mortality screen, wild-type flies; format: in vivo; conditions: 100 ppm in 10% sucrose via cotton wick, 72 hours post-treatment
Protocol: (§1) Ten adult Drosophila melanogaster flies (5 males and 5 females) of the Oregon wild-type strain and ten adult flies of a spinosyn-resistant strain were used per treatment. Two sets (of 10 flies) were set-up per treatment. Stocks of spinosyn A and a 21-butenyl-spinosyn analog were formulated at 1000 ppm in 2:1 acetone:water and then diluted to the required concentration in 10% sucrose. Vials received 500 ul of treatment (or solvent for controls) via cotton wicks (approximately ¼ inch) and flies were added to each vial and capped with a cotton plug. Flies were monitored over 72 hours post-treatment while being maintained at room-temperature with a 12:12 light:dark cycle.
(§2) In addition, the spinosyn A resistant flies were >100-fold resistant (based on LD50) to the new class of spinosyns, represented by the 21-butenyl spinosyns.

[2] = test system: Drosophila melanogaster flies of a spinosyn-resistant strain; assay: Adult fly mortality screen, spinosyn-resistant flies; format: in vivo; conditions: for mortality: 100 ppm in 10% sucrose via cotton wick, 72 hours post-treatment, spinosyn-resistant flies; for resistance of spinosyn A resistant flies compared to wild-type flies (based on LD50): dose-response data, resistant vs wild-type flies
Protocol: as §1, §2

[3] = test system: Dα6 and C. elegans ric3 expressed in D.Mel-2 cells; assay: [3H]DHSA radioligand displacement binding in D.Mel-2 cells; set-up: species or system Drosophila melanogaster
Protocol: D.Mel-2 cells were seeded into 75 cm^2 flasks at 1.9×10^7 cells/flask in Drosophila SFM containing antibiotic/antimicotic and incubated overnight at 27° C. The transfection mix was prepared in 12×75 mm polystyrene tubes by mixing 1630 μl sterile water, 40 μg pIB/V5-HisA/ric3, 40 μg pIB/V5-HisA/30D and 250 μl CellFectin. The reagents were mixed gently and incubated at room temp for 15 minutes. While the transfection mix was incubating, the cells were washed with 10 ml fresh Drosophila SFM without antibiotics; this media was then removed from the cells and replaced with 6 ml fresh Drosophila SFM without antibiotics. To the transfection mix was added 4 ml Drosophila SFM without antibiotics and this was then transferred to the flask. The reagents were gently mixed by pipetting up and down and then incubated overnight at 27° C.
D.Mel-2 cells were purchased from Invitrogen (Carlsbad, Calif.) and grown in disposable 125 ml shake flasks using 50 ml volume. Cells were subcultured to 3×10^5 cells/ml twice per week in Drosophila SFM containing 5 ml/L Antibiotic-Antimycotic (100×) (Gibco, Carlsbad, Calif.). D.Mel-2 cells were seeded into a 12-well plate at a cell density of 5×10^5 cells/well and incubated overnight at 27° C. In a 12×75 mm polystyrene tube 6 μg pIB/V5-HisA/ric3, 82 μl sterile H2O and 12 μl CellFectin (Invitrogen, Carlsbad, Calif.) were added. The sample was mixed gently and incubated at room temperature for 15 minutes. While the transfection mix was incubating, media from one well of cells was removed and replaced with 1 ml fresh media without antibiotics. After 15 minutes, the media was removed from cells. To this transfection mix, 0.5 ml media (no antibiotics) was added. This solution was then added to the cells. The mixture was incubated for 48 hrs at 27° C. After 48 hrs, the cells were scraped from the plate using a cell scraper and split into 4 wells of a 6-well plate each containing 2 ml Drosophila SFM with antibiotics. Cells were allowed to attach for 1 hr at 27° C.; the media was removed and replaced with 2 ml fresh media containing 25 μg/ml Blasticidin S (Invitrogen, Carlsbad, Calif.). Cells were incubated at 27° C. for 5 days. After 5 days, the cells were scraped loose from the wells and combined into one tube. Cells were spun down at 600 rpm in a tabletop centrifuge; the media was removed and the cells were resuspended into a 50 ml shake culture in fresh Drosophila SFM containing 25 μg/ml Blasticidin S. The cells were incubated at 27° C./140 rpm. Cells were subcultured twice weekly back to cell density of 3×10^5 cells/ml. After 4 weeks the selection was cut back to 10 μg/ml Blasticidin S. After 3 months of growth under selection, a 12 well plate was seeded at 5×10^5 cells/well and cells were incubated over night at 27° C. The following reagents were added to each of three 12×75 mm polystyrene tubes: 2 μg pMT/V5-HisA/30D, 0.15 μg pCoHygro (Invitrogen, Carlsbad, Calif.) (a […] ratio of expression plasmid:selection plasmid), 89 μl sterile H2O and 12 μl CellFectin. The samples were mixed gently and incubated at room temp for 15 minutes and then transfected as described above. After 24 hrs, the media containing transfection mix was removed and replaced with 1 ml fresh media containing antibiotics. The incubation was continued at 27° C. for another 24 hrs. Cells were scraped loose from the 12-well plate (3 wells) and split into 2, 6-well plates. Cells were allowed to attach for 6 hours at which point, the media was replaced with 2 ml/well fresh media containing 200, 150, 100 or 50 μg/ml hygromycin B. The incubation was continued at 27° C.; every 4-5 days, the media was replaced with media containing hygromycin every 4-5 days. After 2 weeks of selection in the plates, the cells from the 200 μg/ml selection, were scraped loose and then gently pelleted and resuspended in 25 ml fresh media containing 200 μg/ml hygromycin B and then placed into a 125 ml shake flask.

[4] = test system: 30D (nicotinic acetylcholine receptor alpha-6 subunit); format: cell-based, Drosophila melanogaster; also: key: '−' indicates a negligible current was induced; '+' indicates a small amplitude current; '++' indicates a moderate amplitude current; '++++' indicates a large amplitude current
Protocol: (§3) Xenopus laevis (Xenopus 1, Ann Arbor, Mich.; Nasco, Fort Atkinson, Wis.) were anesthetized by bathing in a solution of 2 g/l tricaine methane sulfonate, and oocytes were surgically removed from the frog and placed in a culture solution that consisted of 96 mM NaCl, 2 mM KCl, 1.8 mM CaCl2, 1 mM MgCl2, 5 mM HEPES, 2.5 mM Na-pyruvate, 100 units/ml penicillin, and 0.1 mg/ml streptomycin, pH 7.6. Oocytes were dispersed in a nominally zero Ca^2+ protease treatment solution to defolliculate the oocytes. The protease treatment solution consisted of either 88 mM NaCl, 2.5 mM KCl, 1 mM MgCl2, 5 mM HEPES, 2.5 mM Na-pyruvate, 100 units/ml penicillin, and 0.1 mg/ml streptomycin, pH 7.6 plus 1.5 mg/ml collagenase IA (Sigma Chemical Co., St. Louis, Mo.). After isolation, the oocytes were thoroughly rinsed and returned to the above Ca^2+ containing culture solution and stored at 18° C.
(§4) Synthesis of cRNA was performed as follows: Plasmid DNA was linearized with one of the following restriction enzymes; Not I, Xho I or Nhe I. The linearized DNA was subsequently used as template for cRNA synthesis using T7 mMessage mMachine kit (Ambion, Austin, Tex.) following the manufacturer's instructions.
(§5) Micropipettes for injection of cRNA into Xenopus oocytes were pulled on a DMZ-Universal Puller (Zeitz-Instruments, München, Germany). The cRNA to be injected was drawn up into the micropipette with negative pressure. Approximately 10-50 ng of cRNA was injected into the oocytes by applying positive pressure using a Nanoject II oocyte injector (Drummond Scientific Co., Broomall, Pa.). Nucleic acid was introduced into the oocytes as follows: (1) nicotinic acetylcholine receptor alpha-6 subunit subunit (30D) (2) nicotinic alpha-7 receptor subunit (34E); (3) nicotinic acetylcholine receptor alpha-6 subunit and C. elegans ric-3 (30D and ric-3); (4) nicotinic alpha-7 receptor subunit and C. elegans ric-3 (34E and ric-3); (5) nicotinic acetylcholine receptor alpha-6 subunit and nicotinic alpha-7 receptor subunit (30D and 34E); and, (6) nicotinic acetylcholine receptor alpha-6 subunit, nicotinic alpha-7 receptor subunit and C. elegans ric-3 (30D, 34E and ric-3).
(§6) The control external solution for voltage clamp recordings consisted of 88 mM NaCl, 1 mM KCl, 0.41 mM CaCl2, 2.4 mM NaHCO3, 0.3 mM Ca(NO3)2, 0.82 mM MgSO4·7 H2O, and 15 mM HEPES, pH 7.6. The recording chamber was continuously perfused with a gravity-fed perfusion system. Nicotine (1 mM) was added to the external solution and then added to the perfusate for 30 seconds. Then, nicotine was washed from the external solution a minimum of 10 minutes. Thereafter, spinosyn A was dissolved in dimethylsulfoxide (DMSO) and then dissolved in the external solution at a final concentration of 10 μM and then added to the perfusate for 60 seconds. Then, the spinosyn A was washed from the external solution. The final concentration of DMSO never exceeded 0.1% (v/v).

30D/ric-3 = format: cell-based, Drosophila melanogaster; conditions: −60 mV, peak current
Protocol: as §3, §4, §5, §6

[5] = test system: 34E (nicotinic acetylcholine receptor alpha-5 subunit); format: cell-based, Drosophila melanogaster; also: key: '−' indicates a negligible current was induced; '+' indicates a small amplitude current; '++' indicates a moderate amplitude current; '++++' indicates a large amplitude current
Protocol: as §3, §4, §5, §6

34E/ric-3 = format: cell-based, Drosophila melanogaster
Protocol: as §3, §4, §5, §6

34E/30D/ric-3 = format: cell-based, Drosophila melanogaster; set-up: key to the marks not given beside the values; conditions: −60 mV, peak current
Protocol: as §3, §4, §5
as §6, with “Then, the spinosyn A was washed from the external solution. The final concentration of DMSO never exceeded 0.1% (v/v).” left out

34E/30D = format: cell-based, Drosophila melanogaster; set-up: key to the marks not given beside the values; conditions: −60 mV, peak current
Protocol: as §3, §4, §5
as §6, with “Then, the spinosyn A was washed from the external solution. The final concentration of DMSO never exceeded 0.1% (v/v).” left out

Dα6-nicotinic receptor = format: binding, Drosophila melanogaster
Protocol: Xenopus oocytes were injected as previously described for the electrophysiological assay and were used intact for binding assays.
Two main radioligands were used in binding assays: the conventional α7 radioligand, [^3H]methyllycaconitine (MLA) and [^3H]dihydrospinosyn A (DHSA). For both radioligands, the Binding Buffer used consisted of 10 mM sodium phosphate (7.2-7.4). […] For Xenopus oocyte binding assays, oocytes were pooled (2-5 oocytes) and transferred to 1 ml Binding Buffer. This was followed by gently aspirating the Binding Buffer and replacing with fresh Binding Buffer twice, to wash out any residual oocyte bathing media. The final volume of buffer added to each pool of oocytes was 50-100 μl. […] Subsequent dilutions were made in Binding Buffer. The final concentration of solvent was maintained at less than 0.1% in each well. 25 μl of unlabeled competing compounds were added to the cell suspensions or oocytes. Cells or cell extracts were pre-incubated with compounds for 15-30 minutes, at 10° C. (for [^3H]DHSA) and room-temperature for [^3H]MLA. The samples were gently shaken using a plate shaker. […] Filter mats were dried in an oven at 60° C. and the radioactivity from samples was counted for three minutes with a Wallac MicroBeta Counter (Wallac, Conn.) using Meltilex solid-scintillant (PerkinElmer, Finland). […]

[6] = D.Mel-2 cells expressing Dα6 and C. elegans ric3
[7] = spinosyn A 10 μM for 60 seconds

## 21-butenyl spinosyn
[1]
  mortality: all wild-type flies exhibited mortality
[2]
  mortality: no significant mortality
  resistance of spinosyn A resistant flies compared to wild-type flies (based on LD50): > 100 fold

## CCN1C[C@]2(COC(=O)c3ccccc3N3C(=O)C[C@H](C)C3=O)CC[C@H](OC)[C@@]34[C@@H]5C[C@H]6[C@H](OC)[C@@H]5[C@](O)(C[C@@H]6OC)[C@@](O)([C@@H](OC)[C@H]23)[C@@H]14 [MLA, methyllycaconitine]
[3]; [6]
  displacement of [3H]DHSA binding: can be demonstrated at higher concentrations
[3]; [3H]DHSA binding assay, D.Mel-2 cells
  overall affinity for this receptor complex: relatively poor

## CN1CCCC1c1cccnc1 (stereo not shown) [Nicotine, nicotine]
[4]
  Nicotine Response: −
30D/ric-3; nicotine 1 mM for 30 seconds
  Nicotine Response: +
[5]
  Nicotine Response: +
34E/ric-3
  Nicotine Response: +
34E/30D/ric-3; nicotine 1 mM for 30 seconds
  Nicotine Response: ++++
34E/30D; nicotine 1 mM for 30 seconds
  Nicotine Response: ++
Dα6-nicotinic receptor
  % Displacement of Total Binding: 72%
[3]; [6]
  displacement of [3H]DHSA binding: displacement

## CC[C@H]1CCC[C@H](O[C@H]2CC[C@H](N(C)C)[C@@H](C)O2)[C@@H](C)C(=O)C2=C[C@@H]3[C@@H](C=C[C@@H]4C[C@@H](O[C@@H]5O[C@@H](C)[C@H](OC)[C@@H](OC)[C@H]5OC)C[C@@H]34)[C@@H]2CC(=O)O1 [Spinosyn A, spinosyn A]
[4]; spinosyn A 10 μM for 60 seconds, oocytes clamped to −60 mV, peak current, 30D
  Spinosyn A Response: −
30D/ric-3; [7]
  Spinosyn A Response: +
[5]; spinosyn A 10 μM for 60 seconds, −60 mV, peak current, 34E
  Spinosyn A Response: −
34E/ric-3; spinosyn A 10 μM for 60 seconds, −60 mV, peak current, 34E/ric-3
  Spinosyn A Response: −
34E/30D/ric-3; [7]
  Spinosyn A Response: ++++
34E/30D; [7]
  Spinosyn A Response: ++
Dα6-nicotinic receptor; 10 μM, [3H]MLA, intact Xenopus oocytes 3 days post-injection with Dmα6
  % Displacement of Total Binding: 72%
[3]; [6]
  displacement of [3H]DHSA binding: significant displacement
[1]
  mortality: all wild-type flies exhibited mortality
[2]
  mortality: no significant mortality
  resistance of spinosyn A resistant flies compared to wild-type flies (based on LD50): at least 100 fold

## CN1[C@@H]2CC[C@H]1C[C@@H](OC(=O)C(CO)c1ccccc1)C2 (stereo partly shown) [atropine]
[3]
  displacement of [3H]DHSA binding: not

## C[N+](C)(C)CCOC(N)=O.[Cl-] [carbamylcholine]
[3]; [6]
  displacement of [3H]DHSA binding: did not significantly displace

## CC[C@H]1CCC[C@H](O[C@H]2CC[C@H](N(C)C)[C@@H](C)O2)[C@@H](C)C(=O)C2=C[C@H]3[C@@H]4C[C@H](O[C@@H]5O[C@@H](C)[C@H](OC)[C@@H](OC)[C@H]5OC)C[C@H]4CC[C@H]3[C@@H]2CC(=O)O1 [dihydrospinosyn A]
[3]; [6]
  displacement of [3H]DHSA binding: significant displacement

## Clc1ccc(C2CC3CCC2N3)cn1 (stereo not shown) [epibatidine]
[3]; [6]
  displacement of [3H]DHSA binding: did not significantly displace

## NS(=O)(=O)c1cc(C(=O)O)c(NCc2ccco2)cc1Cl [furosemide]
[3]; [6]
  displacement of [3H]DHSA binding: No significant displacement

## O=[N+]([O-])NC1=NCCN1Cc1ccc(Cl)nc1 [imidacloprid]
[3]; [6]
  displacement of [3H]DHSA binding: did not significantly displace

## CN1[C@@H](CC(=O)c2ccccc2)CCC[C@H]1C[C@H](O)c1ccccc1 [lobeline]
[3]; [6]
  displacement of [3H]DHSA binding: did not significantly displace

## C[C@@H]1O[C@H](C[N+](C)(C)C)C[C@H]1O [muscarine]
[3]; [6]
  displacement of [3H]DHSA binding: not

## CC[C@H]1CCC[C@H](O)[C@@H](C)C(=O)C2=C[C@@H]3[C@@H](C=C[C@@H]4C[C@@H](O[C@@H]5O[C@@H](C)[C@H](OC)[C@@H](OC)[C@H]5OC)C[C@@H]34)[C@@H]2CC(=O)O1 [pseudoagylcone of spinosyn A]
[3]; [6]
  displacement of [3H]DHSA binding: Nor was there significant displacement

## C[C@H](O)[C@H](O)[C@@H](O)[C@@H](O)C=O [rhamnose]
[3]; [6]
  displacement of [3H]DHSA binding: No significant displacement

## CN1COCN(Cc2cnc(Cl)s2)/C1=N\[N+](=O)[O-] [thiamethoxam]
[3]; [6]
  displacement of [3H]DHSA binding: did not significantly displace

## alpha-bungarotoxin
[3]
  displacement of [3H]DHSA binding: can be demonstrated at higher concentrations
  overall affinity for this receptor complex: relatively poor
